Assay results from patent US9192653B2, “Protecting and repairing cartilage and musculoskeletal soft tissues” (University of Rochester, priority 2008, dated 2015).

Columns and labels:
chick chondrocytes = assay: Continuous 48 hr exposure of chick chondrocytes in culture; format: cell-based; conditions: for smurf2 expression: 48 hr chronic, continuous exposure, chick chondrocytes
Procedure: FIG. 3C is a histogram showing levels of Smurf2 mRNA relative to control in chick sternal chondrocytes cultured with TGFβ, BMP-2, PTHrP, or dibutyryl cyclic adenosine monophosphate (dbcAMP) following a chronic, 48 hour exposure.
The Western blots show pSmad3 and pSmad2 levels in chick sternal chondrocytes cultured in the presence or absence of TGFβ, PTHrP and/or a Smurf2 RNAi (Sf2 RNAi) for 48 hours.
Without meaning to be limited by theory, this may have been due to down-regulation of TGF-β signaling by smurf2, allowing BMP signals to drive hypertrophy.

[1] = tested on: white zone meniscal tears; assay: Rabbit white zone meniscal tear, treatment after surgery; format: in vivo; conditions: treated for 4 weeks after surgery, versus saline
Procedure: FIGS. 12A and 12B show daily treatment with teriparatide for 4 weeks following meniscal surgery results in preliminary meniscal healing. […] Rabbits underwent surgery to produce white zone meniscal tears. The rabbits were treated with either saline (FIG. 12A) or teriparatide (FIG. 12B) after surgery for 4 weeks.

cartilage = assay: Delayed treatment of osteoarthritic mice 8 weeks after joint surgery; format: in vivo; conditions: daily injections for 4 weeks after 8 week delay post surgery
Procedure: Delayed treatment with teriparatide or PTH reduces the amount of cartilage loss as compared to treatment with saline. Mice were allowed to develop osteoarthritis for 8 weeks following joint surgery, as described above. After 8 weeks, the mice were treated for 4 weeks with daily injections of teriparatide or PTH, a delayed treatment regimen.

articular cartilage = assay: Immediate treatment after meniscus/ligament injury (osteoarthritis model); format: in vivo, mice; conditions: for proteoglycan in the articular cartilage (Alcian Blue staining intensity): daily injection for 4 weeks starting immediately after surgery; for cartilage loss (histomorphometric joint cartilage area): daily injection for 12 weeks starting immediately after surgery
Procedure: Treatment with teriparatide or PTH reduces the amount of cartilage loss as compared to treatment with saline. Mice exposed to sham surgery or meniscus/ligament injury, a model for osteoarthritis, were treated, starting immediately after surgery, with saline, teriparatide, or PTH for 4 weeks. […] Mice exposed to sham surgery or meniscus/ligament injury were treated, starting immediately after surgery, with saline, teriparatide, or PTH for 12 weeks.

[2] = tested on: articular cartilage in mice; assay: Murine knee injury model (severe injury), daily injection, Alcian Blue histology; format: in vivo
Procedure: Mice were anesthetized and an arthrotomy of the knee was performed. The medial collateral ligament was surgically transected, and the anterior horn of the medial meniscus was surgically removed to create a mild knee injury. For the severe injury group, the anterior cruciate ligament was also transected, causing severe joint instability in combination with the mild meniscal and medial collateral ligament injuries. The knee was surgically closed and animals were allowed free movement subsequently. One group with the severe combined injuries, as the most difficult case for cartilage protection, was treated daily with injections of teriparatide. After sacrifice at appropriate time points, the knee joints were removed, decalcified, embedded in paraffin, and 4-micron thick sections were stained with Alcian Blue to produce photomicrographs as shown in FIG. 4.

Rabbit meniscal cells = assay: Cultured rabbit meniscal cells, mRNA expression; format: cell-based
Procedure: Rabbit meniscal cells were isolated from rabbit menisci and cultured. Cultured meniscal cells were treated with PTH for 1 or 3 days.

| Molecule | smurf2 expression (chick chondrocytes) | pSmad2 and pSmad3 levels (Western blot) (chick chondrocytes; chick sternal chondrocytes, 48 hours, reversed by Smurf2 siRNA) | meniscal healing (defect, cellularity, proteoglycan content) [1] | cartilage loss and regeneration versus saline control (cartilage) | proteoglycan in the articular cartilage (Alcian Blue staining intensity) (articular cartilage) | cartilage loss (histomorphometric joint cartilage area) (articular cartilage) | development of cartilage degeneration and osteoarthritis ([2]; severe injury (ACL and MCL transection plus medial menisectomy), 4, 8, 12 weeks) | cellular repair activities and hypertrophy or maturational changes ([2]; severe knee injury) | cyclin D1 mRNA (Rabbit meniscal cells; after 3 days of treatment) | type I collagen mRNA (Rabbit meniscal cells; treated for 1 or 3 days) |
| --- | --- | --- | --- | --- | --- | --- | --- | --- | --- | --- |
| parathyroid hormone-related peptide [PTHrP] | stimulated smurf2 expression | reduction of pSmad2 and pSmad3 |  |  |  |  |  |  |  |  |
| CC[C@H](C)[C@H](NC(=O)[C@H](CCC(=O)O)NC(=O)[C@H](CO)NC(=O)[C@@H](NC(=O)[C@@H](N)CO)C(C)C)C(=O)N[C@@H](CCC(N)=O)C(=O)N[C@@H](CC(C)C)C(=O)N[C@@H](CCSC)C(=O)N[C@@H](Cc1cnc[nH]1)C(=O)N[C@@H](CC(N)=O)C(=O)N[C@@H](CC(C)C)C(=O)NCC(=O)N[C@@H](CCCCN)C(=O)N[C@@H](Cc1cnc[nH]1)C(=O)N[C@@H](CC(C)C)C(=O)N[C@@H](CC(N)=O)C(=O)N[C@@H](CO)C(=O)N[C@@H](CCSC)C(=O)N[C@@H](CCC(=O)O)C(=O)N[C@@H](CCCN=C(N)N)C(=O)N[C@H](C(=O)N[C@@H](CCC(=O)O)C(=O)N[C@@H](Cc1c[nH]c2ccccc12)C(=O)N[C@@H](CC(C)C)C(=O)N[C@@H](CCCN=C(N)N)C(=O)N[C@@H](CCCCN)C(=O)N[C@@H](CCCCN)C(=O)N[C@@H](CC(C)C)C(=O)N[C@@H](CCC(N)=O)C(=O)N[C@@H](CC(=O)O)C(=O)N[C@H](C(=O)N[C@@H](Cc1cnc[nH]1)C(=O)N[C@@H](CC(N)=O)C(=O)N[C@@H](Cc1ccccc1)C(=O)O)C(C)C)C(C)C [teriparatide] |  |  | narrowing of the defect with increased cellularlity and proteoglycan content | reduction in the loss of cartilage and regeneration of lost cartilage | upregulation of proteoglycan | reduction in cartilage loss | dramatically retards the development of cartilage degeneration and osteoarthritis | stimulated cellular repair activities with suppression of hypertrophy or maturational changes |  |  |
| CCCC(=O)Nc1ncnc2c1ncn2[C@@H]1O[C@@H]2COP(=O)(O)O[C@H]2[C@H]1OC(=O)CCC [dbcAMP, dibutyryl cyclic adenosine monophosphate] | stimulated smurf2 expression |  |  |  |  |  |  |  |  |  |
| parathyroid hormone (protein, listed as Homo sapiens, Parathyroid Hormone, Parathyroid hormone, ligand of the PTH/PTHrP receptor (PTHR1)) MIPAKDMAKVMIVMLAICFLTKSDGKSVKKRSVSEIQLMHNLGKHLNSMERVEWLRKKLQDVHNFVALGAPLAPRDAGSQRPRKKEDNVLVESHEKSLGEADKADVNVLTKAKSQ |  |  |  | reduction in the loss of cartilage and regeneration of lost cartilage | upregulation of proteoglycan | reduction in cartilage loss |  |  | upregulation of mRNA for cyclin D1 | upregulation of mRNA for type I collagen |
